{
  "source": "patent EP0887348A1",
  "about": "“Bis-Indole derivatives having antimetastatic activity, a process for their preparation and pharmaceutical compositions containing them” (Boehringer Mannheim Italia S.p.A., priority 1997, dated 1998)",
  "test_system": "Lewis Lung (3LL) murine carcinoma",
  "format": "in vivo, Female mice C57BL/6N",
  "protocol": "The \"in vivo\" testing was performed against the Lewis Lung (3LL) murine carcinoma according to the following protocol.\nFemale mice C57BL/6N were inoculated intrafootpad with tumor fragments at day 0. At day 11 the mice were anesthetized and their tumors removed surgically proximal to the popliteale limph nodes. Animals were treated intraperitoneally with the compounds of the invention from one day after surgery until the end of the experiment, day 22 (post-surgery treatment at days 12-15, 18-22). All the compounds were suspended in 0.5% methylcellulose. The mean number of the pulmonary metastases and the mean weight thereof were determined. The toxicity of the compounds of the invention at the administered dosage was also checked, as number of deaths/total no. of treated mice by the end of the experiment.",
  "data": [
    {"compound": "c1cncc(C(c2c[nH]c3ccccc23)c2c[nH]c3ccccc23)c1", "note": "[example 1, 3-[bis(indol-3-yl)methyl]pyridine]", "values": [
      {"measurement": "Toxicity", "setting": "mouse, in vivo, ip, 200 mg/kg/day", "result": "0/9"},
      {"measurement": "Mean weight (mg) of metastases (S.D.)", "setting": "pulmonary metastases, 200 mg/kg/day intraperitoneally, post-surgery treatment day 12-15, 18-22 after tumor injection, control 197.6 (55.0)", "result": "99.2 (63.5) mg"},
      {"measurement": "Mean No. of metastases (S.D.)", "setting": "pulmonary metastases, 200 mg/kg/day intraperitoneally, post-surgery treatment day 12-15, 18-22 after tumor injection, suspended in 0.5% methylcellulose, control 65.9 (11.7)", "result": "31.4 (14.0)"}
    ]}
  ]
}
